The test concerns the target T1, α7 nAChR (Homo sapiens, UniProt P36544).
T1 construct: expressed in transfected cells; host or cells: Xenopus oocytes (cRNA injection)
In words: α7 nAChR positive allosteric modulator activity assay, voltage clamp in Xenopus oocytes with 100 μM ACh. As to conditions: for activity at 10 µM: at 10 μM compound, current induced by 100 μM ACh, Xenopus oocytes expressing α7 nAChR, read-out: Max Mod (%, at 10 μM); for EC50: potentiation of current induced by 100 μM ACh, Hill equation fit. The class given is cell-based. Here is the method:
The experimental process was as follows:
(1) Xenopus oocytes were injected with cRNA encoding α7 nAChR in order to express α7 nAChR on the cell membrane successfully;
(2) 100 μM ACh alone was added, and the α7 nAChR characteristic current caused by it was recorded as a control;
(5) The oocytes were incubated for 1 min with 10 μM compound, then 10 µM compound and 100 μM ACh were added simultaneously and the current induced by ACh was recorded at this time;
(6) The differences between the two currents in terms of peak intensity and duration were compared, with the ratio of peak intensity of the two currents representing the adjustment effect (Enhance Rate), in order to determine whether the compound had PAM activity, if the activity was good, then the subsequent test was carried out;
(7) Concentration gradient was set and the effects of compounds at different concentrations on the α7 nAChR characteristic current induced by 100 μM ACh were evaluated. Several determinations were carried out at the same concentration, and the results were presented in the form of “mean±standard deviation”;
(8) The EC50 (median maximum effect concentration) values and Max mod (the current amplitude caused by the maximal degree of adjustable endogenous agonist acetylcholine) values of the compounds and other activity data were obtained by Hill equation Inormalized=Emax/(1+(EC50/C)nH).
The amplitude of the peak current is only normalized by the amplitude produced by 100 μM ACh and different concentrations of LD486. […] It can be seen from FIG. 3 that the Hill equation is used to fit the dose-response curve and calculate the kinetic parameters.

T1 sequence (P36544 23-502): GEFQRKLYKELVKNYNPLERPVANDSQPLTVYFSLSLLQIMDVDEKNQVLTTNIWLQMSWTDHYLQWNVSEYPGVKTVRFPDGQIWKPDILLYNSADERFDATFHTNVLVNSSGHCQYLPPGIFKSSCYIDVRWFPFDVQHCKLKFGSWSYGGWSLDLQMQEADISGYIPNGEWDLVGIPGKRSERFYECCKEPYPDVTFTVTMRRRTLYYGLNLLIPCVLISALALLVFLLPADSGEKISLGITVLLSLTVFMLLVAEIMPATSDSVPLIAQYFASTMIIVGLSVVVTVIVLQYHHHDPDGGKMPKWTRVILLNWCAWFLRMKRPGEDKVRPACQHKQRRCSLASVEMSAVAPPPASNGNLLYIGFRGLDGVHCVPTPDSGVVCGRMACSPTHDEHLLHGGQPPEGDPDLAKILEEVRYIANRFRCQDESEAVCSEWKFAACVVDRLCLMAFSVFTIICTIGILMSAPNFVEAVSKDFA

Turning to `Cc1cccc(Cl)c1-n1cnc2nc(NCc3ccccc3)sc2c1=O` [JWX-A1228, 6-(2-chloro-6-methylphenyl)-2-(Benzylamino)thiazolo[4,5-d]pyrimidin-7(6H)-one], the activity at 10 µM was determined as 110%.

Consider `CCCNc1nc2ncn(-c3c(C)cccc3Cl)c(=O)c2s1` [JWX-A1229, 6-(2-Chloro-6-methylphenyl)-2-(n-propylamino)thiazolo[4,5-d]pyrimidin-7(6H)-one], for which the activity at 10 µM worked out at 110%.

For the molecule `Cc1cccc(Cl)c1-n1cnc2nc(Nc3ccc(F)c(Cl)c3)sc2c1=O` [JWX-A-C0104, 6-(2-chloro-6-methylphenyl)-2-((3-chloro-4-fluorophenyl)amino)thiazolo[4,5-d]pyrimidin-7(6H)-one], the activity at 10 µM was 500% and the EC50 was found to be 10 µM.

With `Cc1ccc(Nc2nc3ncn(-c4c(C)cccc4Br)c(=O)c3s2)cc1F` [JWX-A-C0106, 6-(2-Bromo-6-methylphenyl)-2-((3-fluoro-4-methylphenyl)amino)thiazolo[4,5-d]pyrimidin-7(6H)-one], the activity at 10 µM amounted to 200% and the EC50 came to 10 µM.

Take `Cc1ccc(Nc2nc3ncn(-c4c(C)cccc4F)c(=O)c3s2)cc1F` [JWX-A-C0111, 6-(2-fluoro-6-methylphenyl)-2-((3-fluoro-4-methylphenyl)amino)thiazolo[4,5-d]pyrimidin-7(6H)-one]: the activity at 10 µM was determined as 110%.

Consider `Cc1ccc(-n2cnc3nc(Nc4ccc(C)c(F)c4)sc3c2=O)c(Cl)c1` [JWX-A-C0229, 6-(2-Chloro-4-methylphenyl)-2-((3-fluoro-4-methylphenyl)amino)thiazolo[4,5-d]pyrimidin-7(6H)-one], for which the activity at 10 µM turned out to be 110%.

With `Cc1ccc(Nc2nc3ncn(-c4ccccc4Cl)c(=O)c3s2)cc1F` [JWX-A-C0831, 6-(2-Chlorophenyl)-2-((3-fluoro-4-methylphenyl)amino)thiazolo[4,5-d]pyrimidin-7(6H)-one], the activity at 10 µM is 380% and the EC50 was determined as 10 µM.

`Cc1cccc(Cl)c1-n1cnc2nc(Nc3ccc(OC(F)(F)F)cc3)sc2c1=O` [JWX-A-C0901, 6-(2-Chloro-6-methylphenyl)-2-((4-(trifluoromethoxy)phenyl)amino)thiazolo[4,5-d]pyrimidin-7(6H)-one]: the activity at 10 µM is 200% and the EC50 worked out at 10 µM.

`Cc1cccc(Cl)c1-n1cnc2nc(Nc3cccc(OC(F)(F)F)c3)sc2c1=O` [JWX-A-C0907, 6-(2-Chloro-6-methylphenyl)-2-((3-(trifluoromethoxy)phenyl)amino)thiazolo[4,5-d]pyrimidin-7(6H)-one]: the activity at 10 µM turned out to be 150% and the EC50 worked out at 10 µM.

For the molecule `Cc1cccc(Cl)c1-n1cnc2nc(Nc3ccc(F)c(F)c3)sc2c1=O` [JWX-A-C0915, 6-(2-Chloro-6-methylphenyl)-2-((3,4-difluorophenyl)amino)thiazolo[4,5-d]pyrimidin-7(6H)-one], the activity at 10 µM is 300% and the EC50 stood at 10 µM.

Regarding `Cc1cc(C)cc(Nc2nc3ncn(-c4c(C)cccc4Cl)c(=O)c3s2)c1` [JWX-A-C1017, 6-(2-Chloro-6-methylphenyl)-2-((3,5-dimethylphenyl)amino)thiazolo[4,5-d]pyrimidin-7(6H)-one], the EC50 was 5.02 µM.

As for `Cc1cccc(Cl)c1-n1cnc2nc(NC(=O)c3ccc(Cl)cc3)sc2c1=O` [JWX-A-C1020, N-(6-(2-Chloro-6-methylphenyl)-7-oxo-6,7-dihydrothiazolo[4,5-d]pyrimidin-2-yl)-4-chlorobenzamide], the activity at 10 µM was found to be 350% and the EC50 was 10 µM.

Take `Cc1ccc(Nc2nc3ncn(-c4ccccc4C)c(=O)c3s2)cc1F` [JWX-A-C1026, 6-(o-tolyl)-2-((3-fluoro-4-methylphenyl)amino)-thiazolo[4,5-d]pyrimidin-7(6H)-one]: the activity at 10 µM is 300% and the EC50 was 10 µM.

Consider `Cc1cccc(Cl)c1-n1cnc2nc(NC(=O)c3ccc(Br)cc3)sc2c1=O` [JWX-A-C1122, N-(6-(2-chloro-6-methylphenyl)-7-oxo-6,7-dihydrothiazolo[4,5-d]pyrimidin-2-yl)-4-bromobenzamide], for which the activity at 10 µM turned out to be 1000% and the EC50 is 9.8 µM.

In the case of `Cc1cccc(Cl)c1-n1cnc2nc(NC(=O)c3ccc(C(F)(F)F)cc3)sc2c1=O` [JWX-A-C1128, N-(6-(2-Chloro-6-methylphenyl)-7-oxo-6,7-dihydrothiazolo[4,5-d]pyrimidin-2-yl)-4-(trifluoromethyl)benzamide], the activity at 10 µM stood at 200% and the EC50 was determined as 10 µM.

For the molecule `Cc1cccc(Cl)c1-n1cnc2nc(NC(=O)c3ccc(OC(F)(F)F)cc3)sc2c1=O` [JWX-A-C1205, N-(6-(2-Chloro-6-methylphenyl)-7-oxo-6,7-dihydrothiazolo[4,5-d]pyrimidin-2-yl)-4-(trifluoromethoxy)benzamide], the activity at 10 µM was determined as 980% and the EC50 was found to be 10.8 µM.

As to `Cc1cccc(Cl)c1-n1cnc2nc(-c3ccccc3)sc2c1=O` [JWX-C1200, 6-(2-Chloro-6-methylphenyl)-2-phenylthiazolo[4,5-d]pyrimidin-7(6H)-one], the activity at 10 µM was 110%.

On to `Cc1cc(C)c(-n2cnc3nc(Nc4ccccc4)sc3c2=O)c(C)c1` [LD252, 6-Mesityl-2-(phenylamino)thiazolo[4,5-d]pyrimidin-7(6H)-one], for which the activity at 10 µM came out at 110%.

As for `Cc1cc(C)c(-n2cnc3nc(Nc4ccccn4)sc3c2=O)c(C)c1` [LD286, 6-Mesityl-2-(pyridin-2-ylamino)thiazolo[4,5-d]pyrimidin-7(6H)-one], the activity at 10 µM stood at 110%.

Regarding `Cc1cc(C)c(-n2cnc3nc(Nc4ccncc4)sc3c2=O)c(C)c1` [LD293, 6-Mesityl-2-(pyridin-4-ylamino)thiazolo[4,5-d]pyrimidin-7(6H)-one], the activity at 10 µM came to 110%.

As for `CSc1nc2ncn(-c3c(Cl)cccc3Cl)c(=O)c2s1` [LD493, 6-(2,6-Dichlorophenyl)-2-(methylthio) thiazolo[4,5-d]pyrimidin-7(6H)-one], the activity at 10 µM stood at 110%.

Turning to `CSc1nc2nnn(-c3c(Cl)cccc3Cl)c(=O)c2s1` [LD496, 3-(2,6-Dichlorophenyl)-6-(methylthio) thiazolo[4,5-d][1,2,3]triazin-4(3H)-one], the activity at 10 µM stood at 110%.

Take `Cc1cccc(Cl)c1-n1cnc2nc(SCc3ccccc3F)sc2c1=O` [LYH150309-2F, 6-(2-Chloro-6-methylphenyl)-2-((2-fluorobenzyl)thio)thiazolo[4,5-d]pyrimidin-7(6H)-one]: the activity at 10 µM was determined as 620% and the EC50 was determined as 4.18 µM.

On to `Cc1cccc(Cl)c1-n1cnc2nc(SCc3cccc(F)c3)sc2c1=O` [LYH150310-3F, 6-(2-Chloro-6-methylphenyl)-2-((3-fluorobenzyl)thio)thiazolo[4,5-d]pyrimidin-7(6H)-one], for which the activity at 10 µM stood at 500% and the EC50 was 10 µM.

`Cc1cccc(Cl)c1-n1cnc2nc(SCc3ccc(F)cc3)sc2c1=O` [LYH150312-4F, 6-(2-Chloro-6-methylphenyl)-2-((4-fluorobenzyl)thio)thiazolo[4,5-d]pyrimidin-7(6H)-one]: the activity at 10 µM stood at 670% and the 50% effective concentration (EC50) came out at 2.87 µM.

With `Cc1ccc(CSc2nc3ncn(-c4c(C)cccc4Cl)c(=O)c3s2)cc1` [LYH150318-4Me, 6-(2-Chloro-6-methylphenyl)-2-((4-methylbenzyl)thio)thiazolo[4,5-d]pyrimidin-7(6H)-one], the activity at 10 µM amounted to 300% and the EC50 was 10 µM.

Turning to `Cc1cccc(CSc2nc3ncn(-c4c(C)cccc4Cl)c(=O)c3s2)c1` [LYH150324-3Me, 6-(2-Chloro-6-methylphenyl)-2-((3-methylbenzyl)thio)thiazolo[4,5-d]pyrimidin-7(6H)-one], the activity at 10 µM was determined as 230% and the EC50 was determined as 10 µM.

As for `Cc1ccccc1CSc1nc2ncn(-c3c(C)cccc3Cl)c(=O)c2s1` [LYH150325-2Me, 6-(2-Chloro-6-methylphenyl)-2-((2-methylbenzyl)thio)thiazolo[4,5-d]pyrimidin-7(6H)-one], the activity at 10 µM turned out to be 370% and the EC50 was 10 µM.

Take `COc1ccc(CSc2nc3ncn(-c4c(C)cccc4Cl)c(=O)c3s2)cc1` [LYH150326-4OCH3, 6-(2-Chloro-6-methylphenyl)-2-((4-methoxybenzyl)thio)thiazolo[4,5-d]pyrimidin-7(6H)-one]: the activity at 10 µM was 300% and the EC50 is 10 µM.

Consider `Cc1cccc(Cl)c1-n1cnc2nc(SCc3ccc(C(F)(F)F)cc3)sc2c1=O` [LYH150409-4CF3, 6-(2-Chloro-6-methylphenyl)-2-((4-(trifluoromethyl)benzyl)thio)thiazolo[4,5-d]pyrimidin-7(6H)-one], for which the activity at 10 µM turned out to be 140% and the EC50 was 10 µM.

As to `Cc1cccc(Cl)c1-n1cnc2nc(Sc3ccc(F)cc3)sc2c1=O` [LYH150908, 6-(2-Chloro-6-methylphenyl)-2-((4-fluorophenyl)thio)thiazolo[4,5-d]pyrimidin-7(6H)-one], the activity at 10 µM turned out to be 200% and the EC50 is 10 µM.

What is called EC50 is the concentration needed to bring the measured effect to its halfway point.

The record behind these values is US10450326B2, “Thiazolopyrimidinone compounds and preparation methods and use thereof” (PEKING UNIVERSITY, priority 2015, dated 2019).
